System: yeast genes (level of expressed mRNA)
Assay: DNA chip analysis of expressed mRNA of yeast genes after 2 h culture with a toxic chemical substance
Assay type: cell-based, Saccharomyces cerevisiae S288C
Details: for The level of expressed mRNA in the presence of chemical substance/ (ratio to absence of chemical substance): stress protein genes, DNA chip; for The level of expressed mRNA in the presence of chemical substance/ in its absence, gene YPR184W: yeast gene YPR184W
Procedure: Yeast (Saccharomyces cerevtisiae S288C (α SUC2mal mel gap2 CUP1)) were cultured at 25° C. on YPD medium (yeast extract 1%, polypepton 2%, glucose 2%). One of toxic chemical substances was added to the cell at logarithmic growth phase, and the cell was further cultured for two hours. Cell was cultured without any chemical substance in the same condition, and was used as control. Concentrations of the chemical substances were defined to inhibit the growth of the yeast but not lead to death.
After the completion of cultivation, the culture was centrifuged to collect the cells. To the cells, sodium acetate buffer (50 mM sodium acetate, 10 mM EDTA, 1% SDS) was added, and the mixture was shaken at 65° C. for five minutes, followed by returning to room temperature, and obtaining the supernatant, which procedure was repeated two times. To the supernatant, ½ amount of a solution of phenol/chloroform was added, and the mixture was centrifuged to give a supernatant, which was added with an equal amount of chloroform, and the mixture was centrifuged to give a supernatant. To the supernatant, an equal amount of isopropanol containing 0.3 M sodium acetate was added, and the mixture was allowed to stand at room temperature for 30 minutes, after which the mixture was centrifuged to give a sediment of the whole RNAs. Seventy % ethanol was added to the sediment, and the mixture was again centrifuged to give a sediment, which was then dried and dissolved in water. mRNA was isolated from the whole RNAs as followings. In view of the fact that a poly A chain is attached to the 3′ terminus of mRNA, a polynucleotide having a poly T structure which was immobilized on the surface of latex beads was used to trap the mRNA, and then the mRNA was washed and eluted with spine column (Oligotex-dT30<Super>mRNA Purification Kit, Takara). Reverse transcription of the mRNA was conducted with a reverse transcriptase (Super Script II Reverse Transcriptase; catalogue No. 18064-014, GibcoBRL) using fluorescence-labeled nucleotides to give cDNAs that were introduced with Cy3-dUTP or Cy5-dUTP during the reverse transcription.
The labeled cDNAs were dissolved in TE buffer (10 mM Tris-HCl/1 mM EDTA, pH8.0), and the solution was dropped on the DNA chip containing the whole genes of yeast (DNA Chip Research Inc. Japan) so that the cDNAs were hybridized on the DNA chip at 65° C. for over 12 hours. The fluoresces intensity of the DNA chip was read with a scanner, and the ratio relative to the fluorescence intensity resulting from the absence of chemical substance was estimated as the following, which is shown in Tables 1 to 9: [formula]
In the Tables, “Intensity” indicated in the rightmost column is a value of the level of expressed mRNA of each gene in control cells as divided by the average level of the expressions of the whole genes.

## CCCCC[C@H](O)CC(=O)CCc1ccc(O)c(OC)c1 [(13), gingerol]
Yeast gene YNL006W
  The level of expressed mRNA in the presence of chemical substance/The level of expressed mRNA in the absence of chemical substance: 2.3
Yeast gene YNL007C
  The level of expressed mRNA in the presence of chemical substance/The level of expressed mRNA in the absence of chemical substance: 2.1
Yeast gene YNL025C, ratio of DNA chip fluorescence intensity to that without chemical substance
  The level of expressed mRNA in the presence of chemical substance/ (in its absence), gene YNL025C: 1.3
Yeast gene YNL064C
  The level of expressed mRNA in the presence of chemical substance/ (ratio to absence of chemical substance): 1.1
Yeast gene YNL073W, mitochondria-located protein genes, 2 h culture with chemical
  The level of expressed mRNA in the presence of chemical substance/ (ratio to absence), gene YNL073W: 1.2
Yeast gene YNL093W
  The level of expressed mRNA in the presence of chemical substance/The level of expressed mRNA in the absence of chemical substance: 2.2
Yeast gene YNL192W, ratio of DNA chip fluorescence intensity to that without chemical substance
  The level of expressed mRNA in the presence of chemical substance/ (in its absence), gene YNL192W: 2.7
Yeast gene YNL333W
  The level of expressed mRNA in the presence of chemical substance/The level of expressed mRNA in the absence of chemical substance: 2.2
Yeast gene YNR010W
  The level of expressed mRNA in the presence of chemical substance/The level of expressed mRNA in the absence of chemical substance: 2.8
Yeast gene YNR069C
  The level of expressed mRNA in the presence of chemical substance/The level of expressed mRNA in the absence of chemical substance: 3.4
Yeast gene YNR072W, ratio of DNA chip fluorescence intensity to that without chemical substance
  The level of expressed mRNA in the presence of chemical substance/ (in its absence), gene YNR072W: 1.5
Yeast gene YNR076W
  The level of expressed mRNA in the presence of chemical substance/ (ratio to absence of chemical substance): 0.9
Yeast gene YOL013C
  The level of expressed mRNA in the presence of chemical substance/The level of expressed mRNA in the absence of chemical substance: 1.8
Yeast gene YOL096C, mitochondria-located protein genes, 2 h culture with chemical
  The level of expressed mRNA in the presence of chemical substance/ (ratio to absence), gene YOL096C: 1.4
Yeast gene YOL096C, ratio of DNA chip fluorescence intensity to that without chemical substance
  The level of expressed mRNA in the presence of chemical substance/ (in its absence), gene YOL096C: 1.4
Yeast gene YOL108C, ratio of DNA chip fluorescence intensity to that without chemical substance
  The level of expressed mRNA in the presence of chemical substance/ (in its absence), gene YOL108C: 1.3
Yeast gene YOL116W, ratio of DNA chip fluorescence intensity to that without chemical substance
  The level of expressed mRNA in the presence of chemical substance/ (in its absence), gene YOL116W: 0.8
Yeast gene YOL161C
  The level of expressed mRNA in the presence of chemical substance/ (ratio to absence of chemical substance): 1.2
Yeast gene YOL164W
  The level of expressed mRNA in the presence of chemical substance/The level of expressed mRNA in the absence of chemical substance: 3.4
Yeast gene YOR008C
  The level of expressed mRNA in the presence of chemical substance/ (ratio to absence of chemical substance): 0.9
Yeast gene YOR009W
  The level of expressed mRNA in the presence of chemical substance/ (ratio to absence of chemical substance): 0.4
Yeast gene YOR010C
  The level of expressed mRNA in the presence of chemical substance/ (ratio to absence of chemical substance): 0.5
Yeast gene YOR036W
  The level of expressed mRNA in the presence of chemical substance/The level of expressed mRNA in the absence of chemical substance: 2.1
Yeast gene YOR103C, ratio of DNA chip fluorescence intensity to that without chemical substance
  The level of expressed mRNA in the presence of chemical substance/ (in its absence), gene YOR103C: 0.8
Yeast gene YOR117W
  The level of expressed mRNA in the presence of chemical substance/The level of expressed mRNA in the absence of chemical substance: 2.3
Yeast gene YOR124C
  The level of expressed mRNA in the presence of chemical substance/The level of expressed mRNA in the absence of chemical substance: 2.1
Yeast gene YOR132W
  The level of expressed mRNA in the presence of chemical substance/The level of expressed mRNA in the absence of chemical substance: 2.5
Yeast gene YOR157C
  The level of expressed mRNA in the presence of chemical substance/The level of expressed mRNA in the absence of chemical substance: 2.4
Yeast gene YOR180C, ratio of DNA chip fluorescence intensity to that without chemical substance
  The level of expressed mRNA in the presence of chemical substance/ (in its absence), gene YOR180C: 0.9
Yeast gene YOR181W
  The level of expressed mRNA in the presence of chemical substance/The level of expressed mRNA in the absence of chemical substance: 1.2
Yeast gene YOR185C
  The level of expressed mRNA in the presence of chemical substance/The level of expressed mRNA in the absence of chemical substance: 2.2
Yeast gene YOR198C
  The level of expressed mRNA in the presence of chemical substance/The level of expressed mRNA in the absence of chemical substance: 1.8
Yeast gene YOR251C, ratio of DNA chip fluorescence intensity to that without chemical substance
  The level of expressed mRNA in the presence of chemical substance/ (in its absence), gene YOR251C: 1.0
Yeast gene YOR259C
  The level of expressed mRNA in the presence of chemical substance/The level of expressed mRNA in the absence of chemical substance: 1.8
Yeast gene YOR261C
  The level of expressed mRNA in the presence of chemical substance/The level of expressed mRNA in the absence of chemical substance: 2.5
Yeast gene YOR288C
  The level of expressed mRNA in the presence of chemical substance/The level of expressed mRNA in the absence of chemical substance: 2.4
Yeast gene YOR316C, mitochondria-located protein genes, 2 h culture with chemical
  The level of expressed mRNA in the presence of chemical substance/ (ratio to absence), gene YOR316C: 1.6
Yeast gene YOR348C, ratio of DNA chip fluorescence intensity to that without chemical substance
  The level of expressed mRNA in the presence of chemical substance/ (in its absence), gene YOR348C: 1.1
Yeast gene YOR355W
  The level of expressed mRNA in the presence of chemical substance/The level of expressed mRNA in the absence of chemical substance: 1.1
Yeast gene YOR363C, ratio of DNA chip fluorescence intensity to that without chemical substance
  The level of expressed mRNA in the presence of chemical substance/ (in its absence), gene YOR363C: 1.3
Yeast gene YOR383C
  The level of expressed mRNA in the presence of chemical substance/The level of expressed mRNA in the absence of chemical substance: 1.2
Yeast gene YPL040C, mitochondria-located protein genes, 2 h culture with chemical
  The level of expressed mRNA in the presence of chemical substance/ (ratio to absence), gene YPL040C: 1.0
Yeast gene YPL059W
  The level of expressed mRNA in the presence of chemical substance/ (ratio to absence of chemical substance): 0.7
Yeast gene YPL089C
  The level of expressed mRNA in the presence of chemical substance/The level of expressed mRNA in the absence of chemical substance: 1.3
Yeast gene YPL109C
  The level of expressed mRNA in the presence of chemical substance/The level of expressed mRNA in the absence of chemical substance: 1.8
Yeast gene YPL134C, mitochondria-located protein genes, 2 h culture with chemical
  The level of expressed mRNA in the presence of chemical substance/ (ratio to absence), gene YPL134C: 1.0
Yeast gene YPL140C
  The level of expressed mRNA in the presence of chemical substance/ (ratio to absence of chemical substance): 0.9
Yeast gene YPL148C, ratio of DNA chip fluorescence intensity to that without chemical substance
  The level of expressed mRNA in the presence of chemical substance/ (in its absence), gene YPL148C: 0.6
Yeast gene YPL149W
  The level of expressed mRNA in the presence of chemical substance/The level of expressed mRNA in the absence of chemical substance: 2.3
Yeast gene YPL154C
  The level of expressed mRNA in the presence of chemical substance/The level of expressed mRNA in the absence of chemical substance: 3.1
Yeast gene YPL194W
  The level of expressed mRNA in the presence of chemical substance/ (ratio to absence of chemical substance): 1.4
Yeast gene YPR005C
  The level of expressed mRNA in the presence of chemical substance/ (ratio to absence of chemical substance): 0.7
Yeast gene YPR103W
  The level of expressed mRNA in the presence of chemical substance/The level of expressed mRNA in the absence of chemical substance: 2.8
Yeast gene YPR108W
  The level of expressed mRNA in the presence of chemical substance/The level of expressed mRNA in the absence of chemical substance: 2.6
Yeast gene YPR165W, ratio of DNA chip fluorescence intensity to that without chemical substance
  The level of expressed mRNA in the presence of chemical substance/ (in its absence), gene YPR165W: 1.0
Energy system protein genes, 2 h culture with the chemical, ratio to control without chemical
  The level of expressed mRNA in the presence of chemical substance/ in its absence, gene YPR184W: 2.5
Ratio of DNA chip fluorescence intensity to that without chemical substance
  The level of expressed mRNA in the presence of chemical substance/ in its absence, gene YPR184W: 2.5

— patent publication US20050112573A1, “Method of detecting toxic substance” (priority 2001, published 2005)
